Data as given in ChEMBL document CHEMBL3885881, “DrugMatrix”.

Species on record: Rattus norvegicus
Assay: DrugMatrix - Regimen: Daily Repeat
Assay type: toxicity, organism-based, Sprague-Dawley
Parameters: regimen Daily Repeat, gender Male, age 6-8 weeks
Details: in vivo, po, route oral GAVAGE, vehicle .5 % CMC; for ABSOLUTE BASOPHIL / ABSOLUTE EOSINOPHIL / ABSOLUTE LYMPHOCYTE / ABSOLUTE MONOCYTE / ABSOLUTE SEGMENTED NEUTROPHIL / BASOPHIL / EOSINOPHIL / ERYTHROCYTE COUNT / HEMATOCRIT / HEMOGLOBIN / LEUKOCYTE COUNT / LYMPHOCYTE / MEAN CORPUSCULAR HEMOGLOBIN / MEAN CORPUSCULAR HEMOGLOBIN CONCENTRATION / MEAN CORPUSCULAR VOLUME / MONOCYTE / NEUTROPHIL / NUCLEATED RED BLOOD CELLS / PLATELET COUNT: tissue Blood; for ALANINE AMINOTRANSFERASE / ALBUMIN / ALKALINE PHOSPHATASE / ASPARTATE AMINOTRANSFERASE / BLOOD UREA NITROGEN / CARBON DIOXIDE / CHLORIDE / CHOLESTEROL / CREATINE PHOSPHOKINASE / CREATININE / GLUCOSE / LACTATE DEHYDROGENASE / LIPASE / PHOSPHORUS / POTASSIUM / SODIUM / TOTAL BILIRUBIN / TOTAL PROTEIN / URIC ACID: tissue Plasma
[1] = 100 mg/kg, 72 h, dose level Low, time 3 day
[2] = 100 mg/kg, 120 h, dose level Low, time 5 day
[3] = 1500 mg/kg, 72 h, dose level High, time 3 day
[4] = 1500 mg/kg, 120 h, dose level High, time 5 day

`Nc1nc2c(c(=O)[nH]1)N(C=O)C(CNc1ccc(C(=O)N[C@@H](CCC(=O)O)C(=O)O)cc1)CN2` (some centres not stated) [LEUCOVORIN] was tested, and the “ABSOLUTE BASOPHIL” value [1] was 0 CELLS/uL, the “ABSOLUTE EOSINOPHIL” value [1] was 0 CELLS/uL and the “ABSOLUTE LYMPHOCYTE” value [1] was 14793 CELLS/uL. For the same molecule, the “ABSOLUTE MONOCYTE” value [1] was 101.33 CELLS/uL, the “ABSOLUTE SEGMENTED NEUTROPHIL” value [1] was 1572.33 CELLS/uL and the BASOPHIL [1] was 0%. For the same molecule, the EOSINOPHIL [1] was 0%, the “ERYTHROCYTE COUNT” value [1] was 5.73 x10E6/uL and the HEMATOCRIT [1] was 35.97%. For the same molecule, the HEMOGLOBIN [1] was 14.23 G/DL, the “LEUKOCYTE COUNT” value [1] was 16.47 x10E3/uL and the LYMPHOCYTE [1] was 89.67%. For the same molecule, the “MEAN CORPUSCULAR HEMOGLOBIN” value [1] was 24.9 pg, the “MEAN CORPUSCULAR HEMOGLOBIN CONCENTRATION” value [1] was 39.63 G/DL and the “MEAN CORPUSCULAR VOLUME” value [1] was 62.83 fL. The MONOCYTE [1] was 0.67%, the NEUTROPHIL [1] was 9.67% and the “NUCLEATED RED BLOOD CELLS” value [1] was 0.33 /100WBC. For the same molecule, the “PLATELET COUNT” value [1] was 1244.67 x10E3/uL, the “ALANINE AMINOTRANSFERASE” value [1] was 62.33 u/L and the ALBUMIN [1] was 4.43 G/DL. For the same molecule, the “ALKALINE PHOSPHATASE” value [1] was 427.33 u/L, the “ASPARTATE AMINOTRANSFERASE” value [1] was 83.67 u/L and the “BLOOD UREA NITROGEN” value [1] was 16.33 mg/dL. The “CARBON DIOXIDE” value [1] was 29 mmol/L, the CHLORIDE [1] was 98.67 MEQ/L and the CHOLESTEROL [1] was 67 mg/dL. The “CREATINE PHOSPHOKINASE” value [1] was 289.67 u/L, the CREATININE [1] was 0.22 mg/dL and the GLUCOSE [1] was 142 mg/dL. For the same molecule, the “LACTATE DEHYDROGENASE” value [1] was 152.33 u/L, the LIPASE [1] was 9.33 u/L and the PHOSPHORUS [1] was 14.03 mg/dL. For the same molecule, the POTASSIUM [1] was 7.04 MEQ/L, the SODIUM [1] was 146.13 MEQ/L and the “TOTAL BILIRUBIN” value [1] was 0.3 mg/dL. For the same molecule, the “TOTAL PROTEIN” value [1] was 6.1 G/DL, the “URIC ACID” value [1] was 1.77 mg/dL and the “ABSOLUTE BASOPHIL” value [2] was 0 CELLS/uL. The “ABSOLUTE EOSINOPHIL” value [2] was 60.33 CELLS/uL, the “ABSOLUTE LYMPHOCYTE” value [2] was 13263.33 CELLS/uL and the “ABSOLUTE MONOCYTE” value [2] was 23.33 CELLS/uL. For the same molecule, the “ABSOLUTE SEGMENTED NEUTROPHIL” value [2] was 1019.67 CELLS/uL, the BASOPHIL [2] was 0% and the EOSINOPHIL [2] was 0.33%. For the same molecule, the “ERYTHROCYTE COUNT” value [2] was 5.54 x10E6/uL, the HEMATOCRIT [2] was 36.17% and the HEMOGLOBIN [2] was 13.53 G/DL. The “LEUKOCYTE COUNT” value [2] was 14.37 x10E3/uL, the LYMPHOCYTE [2] was 92.67% and the “MEAN CORPUSCULAR HEMOGLOBIN” value [2] was 24.4 pg. The “MEAN CORPUSCULAR HEMOGLOBIN CONCENTRATION” value [2] was 37.4 G/DL, the “MEAN CORPUSCULAR VOLUME” value [2] was 65.23 fL and the MONOCYTE [2] was 0.33%. For the same molecule, the NEUTROPHIL [2] was 6.67%, the “NUCLEATED RED BLOOD CELLS” value [2] was 1 /100WBC and the “PLATELET COUNT” value [2] was 1225.67 x10E3/uL. For the same molecule, the “ALANINE AMINOTRANSFERASE” value [2] was 52 u/L, the ALBUMIN [2] was 4.3 G/DL and the “ALKALINE PHOSPHATASE” value [2] was 311.67 u/L. The “ASPARTATE AMINOTRANSFERASE” value [2] was 76 u/L, the “BLOOD UREA NITROGEN” value [2] was 15.33 mg/dL and the “CARBON DIOXIDE” value [2] was 26 mmol/L. For the same molecule, the CHLORIDE [2] was 102 MEQ/L, the CHOLESTEROL [2] was 57.33 mg/dL and the “CREATINE PHOSPHOKINASE” value [2] was 211.67 u/L. The CREATININE [2] was 0.21 mg/dL, the GLUCOSE [2] was 175.67 mg/dL and the “LACTATE DEHYDROGENASE” value [2] was 113.33 u/L. It also gave an LIPASE [2] of 8.67 u/L, a PHOSPHORUS [2] of 12.6 mg/dL and a POTASSIUM [2] of 6.61 MEQ/L. For the same molecule, the SODIUM [2] was 146.23 MEQ/L, the “TOTAL BILIRUBIN” value [2] was 0.23 mg/dL and the “TOTAL PROTEIN” value [2] was 6.1 G/DL. The “URIC ACID” value [2] was 1.7 mg/dL, the “ABSOLUTE BASOPHIL” value [3] was 0 CELLS/uL and the “ABSOLUTE EOSINOPHIL” value [3] was 0 CELLS/uL. For the same molecule, the “ABSOLUTE LYMPHOCYTE” value [3] was 14453.33 CELLS/uL, the “ABSOLUTE MONOCYTE” value [3] was 60 CELLS/uL and the “ABSOLUTE SEGMENTED NEUTROPHIL” value [3] was 2253.33 CELLS/uL. The BASOPHIL [3] was 0%, the EOSINOPHIL [3] was 0% and the “ERYTHROCYTE COUNT” value [3] was 5.28 x10E6/uL. For the same molecule, the HEMATOCRIT [3] was 35.03%, the HEMOGLOBIN [3] was 13.77 G/DL and the “LEUKOCYTE COUNT” value [3] was 16.77 x10E3/uL. The LYMPHOCYTE [3] was 86.33%, the “MEAN CORPUSCULAR HEMOGLOBIN” value [3] was 26.07 pg and the “MEAN CORPUSCULAR HEMOGLOBIN CONCENTRATION” value [3] was 39.33 G/DL. The “MEAN CORPUSCULAR VOLUME” value [3] was 66.33 fL, the MONOCYTE [3] was 0.33% and the NEUTROPHIL [3] was 13.33%. For the same molecule, the “NUCLEATED RED BLOOD CELLS” value [3] was 0 /100WBC, the “PLATELET COUNT” value [3] was 1212 x10E3/uL and the “ALANINE AMINOTRANSFERASE” value [3] was 44.33 u/L. The ALBUMIN [3] was 4.3 G/DL, the “ALKALINE PHOSPHATASE” value [3] was 372.67 u/L and the “ASPARTATE AMINOTRANSFERASE” value [3] was 77.67 u/L. The “BLOOD UREA NITROGEN” value [3] was 11.33 mg/dL, the “CARBON DIOXIDE” value [3] was 32 mmol/L and the CHLORIDE [3] was 102 MEQ/L. For the same molecule, the CHOLESTEROL [3] was 68.33 mg/dL, the “CREATINE PHOSPHOKINASE” value [3] was 183.67 u/L and the CREATININE [3] was 0.15 mg/dL. For the same molecule, the GLUCOSE [3] was 156 mg/dL, the “LACTATE DEHYDROGENASE” value [3] was 116 u/L and the LIPASE [3] was 8.67 u/L. For the same molecule, the PHOSPHORUS [3] was 13.4 mg/dL, the POTASSIUM [3] was 6.98 MEQ/L and the SODIUM [3] was 146.03 MEQ/L. For the same molecule, the “TOTAL BILIRUBIN” value [3] was 0.17 mg/dL, the “TOTAL PROTEIN” value [3] was 6 G/DL and the “URIC ACID” value [3] was 1.83 mg/dL. The “ABSOLUTE BASOPHIL” value [4] was 0 CELLS/uL, the “ABSOLUTE EOSINOPHIL” value [4] was 46.33 CELLS/uL and the “ABSOLUTE LYMPHOCYTE” value [4] was 14356 CELLS/uL. For the same molecule, the “ABSOLUTE MONOCYTE” value [4] was 200.33 CELLS/uL, the “ABSOLUTE SEGMENTED NEUTROPHIL” value [4] was 930.67 CELLS/uL and the BASOPHIL [4] was 0%. For the same molecule, the EOSINOPHIL [4] was 0.33%, the “ERYTHROCYTE COUNT” value [4] was 5.73 x10E6/uL and the HEMATOCRIT [4] was 35.37%. For the same molecule, the HEMOGLOBIN [4] was 14.17 G/DL, the “LEUKOCYTE COUNT” value [4] was 15.53 x10E3/uL and the LYMPHOCYTE [4] was 92.33%. The “MEAN CORPUSCULAR HEMOGLOBIN” value [4] was 24.8 pg, the “MEAN CORPUSCULAR HEMOGLOBIN CONCENTRATION” value [4] was 40.07 G/DL and the “MEAN CORPUSCULAR VOLUME” value [4] was 61.77 fL. For the same molecule, the MONOCYTE [4] was 1.33%, the NEUTROPHIL [4] was 6% and the “NUCLEATED RED BLOOD CELLS” value [4] was 0 /100WBC. The “PLATELET COUNT” value [4] was 1112.33 x10E3/uL, the “ALANINE AMINOTRANSFERASE” value [4] was 56.67 u/L and the ALBUMIN [4] was 4.3 G/DL. The “ALKALINE PHOSPHATASE” value [4] was 387 u/L, the “ASPARTATE AMINOTRANSFERASE” value [4] was 87.33 u/L and the “BLOOD UREA NITROGEN” value [4] was 16.33 mg/dL. The “CARBON DIOXIDE” value [4] was 36 mmol/L, the CHLORIDE [4] was 99.67 MEQ/L and the CHOLESTEROL [4] was 57.33 mg/dL. For the same molecule, the “CREATINE PHOSPHOKINASE” value [4] was 288.67 u/L, the CREATININE [4] was 0.2 mg/dL and the GLUCOSE [4] was 147 mg/dL. The “LACTATE DEHYDROGENASE” value [4] was 263.67 u/L, the LIPASE [4] was 9 u/L and the PHOSPHORUS [4] was 12.9 mg/dL. For the same molecule, the POTASSIUM [4] was 6.55 MEQ/L, the SODIUM [4] was 145.83 MEQ/L and the “TOTAL BILIRUBIN” value [4] was 0.2 mg/dL. For the same molecule, the “TOTAL PROTEIN” value [4] was 6.13 G/DL and the “URIC ACID” value [4] was 1.37 mg/dL.
